Values after ≈ are worked out from the molar mass of the structure shown.
Columns and labels:
[1] = Solubility of the compound in PBS buffer at pH 7.4 by shake-flask method; type: physicochemical
[2] = biological target: T1, Neuromedin-K receptor (Homo sapiens, UniProt P29371); experiment: biochemical
T1 sequence (P29371 whole entry): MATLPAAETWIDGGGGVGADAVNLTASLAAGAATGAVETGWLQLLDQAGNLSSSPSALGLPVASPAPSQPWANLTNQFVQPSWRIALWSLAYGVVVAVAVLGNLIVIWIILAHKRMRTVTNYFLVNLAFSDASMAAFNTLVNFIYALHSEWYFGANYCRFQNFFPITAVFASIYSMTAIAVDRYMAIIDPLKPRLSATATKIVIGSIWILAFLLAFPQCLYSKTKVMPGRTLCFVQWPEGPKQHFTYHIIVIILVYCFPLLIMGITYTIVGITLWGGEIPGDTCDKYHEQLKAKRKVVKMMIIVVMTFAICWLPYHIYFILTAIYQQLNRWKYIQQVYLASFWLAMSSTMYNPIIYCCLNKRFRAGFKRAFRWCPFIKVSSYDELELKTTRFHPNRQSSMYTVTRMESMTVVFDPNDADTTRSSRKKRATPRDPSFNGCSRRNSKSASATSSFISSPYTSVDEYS
Description: Displacement of [3H]-SB222200 from recombinant human NK3R expressed in CHO cell membranes after 90 mins by scintillation counting analysis

[3] = biological target: T1, Neuromedin-K receptor
[4] = Lipophilicity, log D of the compound at pH 7.4; type: physicochemical; conditions: buffer, read-out: logD
[5] = biological target: Cytochrome P450 2C19 (Homo sapiens, UniProt P33261); experiment: Inhibition of CYP2C19 (unknown origin) by luciferase reporter assay in presence of NADPH regeneration system
[6] = biological target: Cytochrome P450 2D6 (Homo sapiens, UniProt P10635); experiment: Inhibition of CYP2D6 (unknown origin) by luciferase reporter assay in presence of NADPH regeneration system; type: ADME
[7] = biological target: Cytochrome P450 2C9 (Homo sapiens, UniProt P11712); experiment: Inhibition of CYP2C9 (unknown origin) by luciferase reporter assay in presence of NADPH regeneration system; type: ADME
[8] = biological target: T2, Cytochrome P450 1A2 (Homo sapiens, UniProt P05177); experiment: Inhibition of CYP1A2 (unknown origin) by luciferase reporter assay in presence of NADPH regeneration system; type: ADME
T2 sequence (P05177 whole entry): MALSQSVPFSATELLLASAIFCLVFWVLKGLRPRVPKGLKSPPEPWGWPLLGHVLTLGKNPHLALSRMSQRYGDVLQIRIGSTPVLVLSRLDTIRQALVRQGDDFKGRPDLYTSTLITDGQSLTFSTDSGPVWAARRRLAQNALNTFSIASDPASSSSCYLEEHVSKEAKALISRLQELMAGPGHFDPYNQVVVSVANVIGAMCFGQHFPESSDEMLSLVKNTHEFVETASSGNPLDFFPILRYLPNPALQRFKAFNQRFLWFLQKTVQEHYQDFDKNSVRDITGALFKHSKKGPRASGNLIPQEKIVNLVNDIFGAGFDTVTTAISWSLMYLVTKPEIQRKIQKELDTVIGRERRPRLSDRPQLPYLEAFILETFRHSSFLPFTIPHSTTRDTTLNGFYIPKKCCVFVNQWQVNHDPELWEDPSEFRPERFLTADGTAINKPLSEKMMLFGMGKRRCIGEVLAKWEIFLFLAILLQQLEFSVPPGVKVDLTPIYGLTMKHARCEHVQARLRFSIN

[9] = biological target: Cytochrome P450 3A4 (Homo sapiens, UniProt P08684); experiment: Inhibition of CYP3A4 (unknown origin) by luciferase reporter assay in presence of NADPH regeneration system; type: ADME
Chain of Cytochrome P450 3A4 (P08684 whole entry): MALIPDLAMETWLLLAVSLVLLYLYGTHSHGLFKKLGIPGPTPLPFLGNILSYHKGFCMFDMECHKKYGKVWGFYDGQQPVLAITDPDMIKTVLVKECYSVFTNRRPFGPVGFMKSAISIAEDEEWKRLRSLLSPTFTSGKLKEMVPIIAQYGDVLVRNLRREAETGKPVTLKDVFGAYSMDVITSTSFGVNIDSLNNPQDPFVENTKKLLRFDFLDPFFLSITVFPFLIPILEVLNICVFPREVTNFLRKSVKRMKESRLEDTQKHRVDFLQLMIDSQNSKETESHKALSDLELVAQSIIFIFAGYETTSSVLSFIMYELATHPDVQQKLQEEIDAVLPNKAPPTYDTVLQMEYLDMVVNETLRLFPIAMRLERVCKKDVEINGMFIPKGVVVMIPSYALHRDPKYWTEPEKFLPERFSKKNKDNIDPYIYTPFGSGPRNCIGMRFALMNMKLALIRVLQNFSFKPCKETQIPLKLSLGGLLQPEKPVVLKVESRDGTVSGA

Chain of Cytochrome P450 2D6 (P10635 whole entry): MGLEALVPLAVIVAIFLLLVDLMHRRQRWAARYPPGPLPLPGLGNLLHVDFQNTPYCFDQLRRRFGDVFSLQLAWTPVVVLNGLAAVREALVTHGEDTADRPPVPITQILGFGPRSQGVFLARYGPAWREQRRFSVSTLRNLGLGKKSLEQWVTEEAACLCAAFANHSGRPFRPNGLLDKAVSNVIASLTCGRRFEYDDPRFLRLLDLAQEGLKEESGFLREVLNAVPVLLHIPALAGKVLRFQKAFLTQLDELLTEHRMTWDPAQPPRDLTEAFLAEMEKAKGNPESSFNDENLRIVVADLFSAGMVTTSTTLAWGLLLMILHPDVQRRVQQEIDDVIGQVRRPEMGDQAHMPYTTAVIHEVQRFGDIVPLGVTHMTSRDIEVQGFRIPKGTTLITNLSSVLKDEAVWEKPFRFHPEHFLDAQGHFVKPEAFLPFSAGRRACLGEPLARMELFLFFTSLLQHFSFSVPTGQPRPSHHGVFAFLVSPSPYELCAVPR
Chain of Cytochrome P450 2C19 (P33261 whole entry): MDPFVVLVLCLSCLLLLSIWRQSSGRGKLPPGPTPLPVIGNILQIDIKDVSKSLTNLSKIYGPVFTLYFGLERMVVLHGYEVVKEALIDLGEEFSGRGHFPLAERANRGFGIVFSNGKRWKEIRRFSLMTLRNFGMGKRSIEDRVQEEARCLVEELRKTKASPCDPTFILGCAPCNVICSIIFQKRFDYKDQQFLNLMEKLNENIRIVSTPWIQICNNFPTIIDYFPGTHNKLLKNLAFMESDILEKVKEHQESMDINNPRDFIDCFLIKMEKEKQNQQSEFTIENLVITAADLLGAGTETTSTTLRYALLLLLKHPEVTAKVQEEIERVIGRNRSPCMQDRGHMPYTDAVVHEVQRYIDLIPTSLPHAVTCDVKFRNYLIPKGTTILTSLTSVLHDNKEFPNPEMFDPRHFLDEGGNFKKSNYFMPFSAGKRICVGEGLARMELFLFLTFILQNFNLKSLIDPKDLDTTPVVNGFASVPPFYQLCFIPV
Chain of Cytochrome P450 2C9 (P11712 whole entry): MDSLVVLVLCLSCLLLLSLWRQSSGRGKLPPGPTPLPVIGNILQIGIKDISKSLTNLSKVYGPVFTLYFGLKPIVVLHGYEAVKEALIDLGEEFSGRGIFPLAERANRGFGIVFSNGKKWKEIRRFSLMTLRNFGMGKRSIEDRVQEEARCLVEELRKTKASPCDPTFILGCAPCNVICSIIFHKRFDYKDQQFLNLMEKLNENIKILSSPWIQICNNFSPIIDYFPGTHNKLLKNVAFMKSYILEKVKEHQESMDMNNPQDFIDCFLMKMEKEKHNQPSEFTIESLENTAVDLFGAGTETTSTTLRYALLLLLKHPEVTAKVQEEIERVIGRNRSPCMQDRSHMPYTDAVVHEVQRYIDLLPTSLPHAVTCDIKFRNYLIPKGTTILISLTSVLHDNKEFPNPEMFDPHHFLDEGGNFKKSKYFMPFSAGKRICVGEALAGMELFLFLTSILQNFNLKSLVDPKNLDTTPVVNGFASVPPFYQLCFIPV

SMILES	solubility thermodynamic [1]	Ki [2]	IC50 [3]	logD [4]	IC50 [5]	IC50 [6]	IC50 [7]	IC50 [8]	IC50 [9]
O=C(c1cccc(F)c1)N1CCn2c(nnc2-c2ccccn2)C1	199 µM (≈ 64.3 µg/mL)	5.01 µM	6.31 µM	–	–	–	–	–	–
Cc1cccc(-c2nnc3n2CCN(C(=O)c2ccc(-c4cccs4)cc2)[C@@H]3C)n1	110 µM (≈ 45.7 µg/mL)	–	0.01 µM	3.4	26 µM	86 µM	18 µM	57 µM	45 µM
COc1cccc(C(=O)N2CCn3c(nnc3-c3ccccn3)C2)c1	196 µM (≈ 65.7 µg/mL)	> 31.6 µM	> 31.6 µM	–	–	–	–	–	–
Cc1cccnc1-c1nnc2n1CCN(C(=O)c1ccc(F)cc1)C2	≥ 200 µM	> 31.6 µM	> 31.6 µM	–	–	–	–	–	–
COc1ccc(C(=O)N2CCn3c(nnc3-c3ccccn3)C2)cc1	194 µM (≈ 65.1 µg/mL)	> 31.6 µM	> 31.6 µM	–	–	–	–	–	–
O=C(c1ccc(Cc2ccccc2)cc1)N1CCn2c(nnc2-c2ccccn2)C1	169 µM (≈ 66.8 µg/mL)	> 31.6 µM	> 31.6 µM	–	–	–	–	–	–
Cc1nc(-c2nnc3n2CCN(C(=O)c2ccc(F)cc2)[C@@H]3C)cs1	≥ 200 µM	–	–	1.3	44 µM	> 100 µM	56 µM	> 100 µM	63 µM
COc1ccc(-c2ccc(C(=O)N3CCn4c(nnc4-c4ccccn4)C3)cc2)cc1	6.4 µM (≈ 2.63 µg/mL)	> 31.6 µM	> 31.6 µM	–	–	–	–	–	–
Cc1ccc(-c2ccc(C(=O)N3CCn4c(nnc4-c4ccccn4)C3)cc2)o1	71 µM (≈ 27.4 µg/mL)	15.8 µM	10 µM	–	–	–	–	–	–
Cc1ccnc(-c2nnc3n2CCN(C(=O)c2ccc(F)cc2)C3)c1	≥ 200 µM	6.31 µM	6.31 µM	–	–	–	–	–	–
Cc1nc(-c2nnc3n2CCN(C(=O)c2ccc(-c4cccs4)cc2)[C@H]3C)cs1	–	–	–	3.1	–	–	–	–	–
C[C@H]1c2nnc(-c3ccccn3)n2CCN1C(=O)c1ccc(F)cc1	≥ 200 µM	7.94 µM	7.94 µM	–	–	–	–	–	–
O=C(c1ccc(-c2ccc(Cl)cc2)cc1)N1CCn2c(nnc2-c2ccccn2)C1	5.3 µM (≈ 2.2 µg/mL)	5.01 µM	3.98 µM	–	–	–	–	–	–
O=C(c1ccccc1F)N1CCn2c(nnc2-c2ccccn2)C1	≥ 200 µM	> 31.6 µM	> 31.6 µM	–	–	–	–	–	–
COc1ccccc1C(=O)N1CCn2c(nnc2-c2ccccn2)C1	≥ 200 µM	> 31.6 µM	> 31.6 µM	–	–	–	–	–	–

More lines, now with the values ahead:

solubility thermodynamic [1]	Ki [2]	IC50 [3]	logD [4]	IC50 [5]	IC50 [6]	IC50 [7]	IC50 [8]	IC50 [9]	SMILES
160 µM (≈ 66.6 µg/mL)	0.0126 µM	0.02 µM	2.7	39 µM	> 100 µM	17 µM	50 µM	2 µM	Cc1cncc(-c2nnc3n2CCN(C(=O)c2ccc(-c4cccs4)cc2)[C@@H]3C)n1
193 µM (≈ 75.5 µg/mL)	0.398 µM	0.398 µM	–	> 100 µM	> 100 µM	> 100 µM	21 µM	> 100 µM	O=C(c1ccc(F)cc1)N1CCn2c(nnc2-c2cccc(C(F)(F)F)n2)C1
197 µM (≈ 69.2 µg/mL)	0.0631 µM	0.0794 µM	1.6	–	–	–	–	–	Cc1cccc(-c2nnc3n2CCN(C(=O)c2ccc(F)cc2)[C@@H]3C)n1
≥ 200 µM	0.794 µM	0.794 µM	–	–	–	–	–	–	C[C@@H]1c2nnc(-c3ccccn3)n2CCN1C(=O)c1ccc(F)cc1
≥ 200 µM	1.58 µM	2.51 µM	–	–	–	–	–	–	Cc1ccc(-c2nnc3n2CCN(C(=O)c2ccc(F)cc2)C3)nc1
50 µM (≈ 21.1 µg/mL)	0.00631 µM	–	2.9	18 µM	42 µM	8 µM	8 µM	11 µM	Cc1csc(-c2nnc3n2CCN(C(=O)c2ccc(-c4cccs4)cc2)[C@@H]3C)n1
10 µM (≈ 3.99 µg/mL)	2 µM	1.58 µM	–	–	–	–	–	–	O=C(c1ccc(-c2ccc(F)cc2)cc1)N1CCn2c(nnc2-c2ccccn2)C1
1.4 µM (≈ 0.568 µg/mL)	1.58 µM	1.58 µM	–	–	–	–	–	–	O=C(c1cc(-c2ccc(Cl)cc2)n[nH]1)N1CCn2c(nnc2-c2ccccn2)C1
12 µM (≈ 4.65 µg/mL)	0.501 µM	0.631 µM	–	–	–	–	–	–	O=C(c1ccc(-c2cccs2)cc1)N1CCn2c(nnc2-c2ccccn2)C1
179 µM (≈ 75.1 µg/mL)	0.0251 µM	0.0158 µM	3.4	19 µM	54 µM	19 µM	25 µM	67 µM	C[C@@H]1c2nnc(-c3csc(-c4ccccc4)n3)n2CCN1C(=O)c1ccc(F)cc1
≥ 200 µM	0.501 µM	0.501 µM	1.4	48 µM	> 100 µM	> 100 µM	69 µM	> 100 µM	Cc1cccc(-c2nnc3n2CCN(C(=O)c2ccc(F)cc2)C3)n1
11 µM (≈ 5.23 µg/mL)	0.0794 µM	0.0631 µM	4.1	18 µM	> 100 µM	5 µM	8 µM	> 100 µM	C[C@@H]1c2nnc(-c3csc(C(F)(F)F)n3)n2CCN1C(=O)c1ccc(-c2cccs2)cc1
28 µM (≈ 10.7 µg/mL)	1.26 µM	1.58 µM	–	–	–	–	–	–	O=C(c1ccc(-c2ccccc2)cc1)N1CCn2c(nnc2-c2ccccn2)C1
25 µM (≈ 11.2 µg/mL)	0.00251 µM	0.00398 µM	4.4	12 µM	27 µM	4 µM	17 µM	35 µM	CC(C)c1nc(-c2nnc3n2CCN(C(=O)c2ccc(-c4cccs4)cc2)[C@@H]3C)cs1
